Test results: patent publication US9803021B2 (The Regents of the University of California, priority 2012, dated 2017)
Entries after “also recorded” stand apart in the source; their conditions may differ.

Tests used:
Format in all cases: cell-based, human
Daudi cells = assay: MTS cell viability assay; conditions: 72 h / 3 day incubation
Method: (§1) Percent cell viability was determined using MTS solution (Promega, Madison, Wis.) by measuring absorbance at 490 nm using a Synergy HT Multi-Detection Microplate Reader (BioTek Instruments, Inc., Winooski, Vt.) with untreated cells being 100%. GraphPad Prism (GraphPad Software Inc., La Jolla, Calif.) was used to analyze data by non-linear regression with the log (inhibitor) vs. the response with a variable slope with the IC50 calculated. Data are expressed as a percentage of maximum metabolic activity. The experiments were performed in triplicate.
as §1, with “Metabolic activity” for “Percent cell viability”, “(Promega)” for “(Promega, Madison, Wis.)”, “Instruments Inc.)” for “Instruments, Inc., Winooski, Vt.)”, “Inc.)” for “Inc., La Jolla, Calif.)”, “versus” for “vs.”, “slope.” for “slope with the IC50 calculated.”

8226/S = assay: MTS assay (cell viability / metabolic activity); conditions: 8226/S (RPMI 8226), 3 days or 4 days
Method: as §1
as §1, with “Metabolic activity” for “Percent cell viability”, “(Promega)” for “(Promega, Madison, Wis.)”, “Instruments Inc.)” for “Instruments, Inc., Winooski, Vt.)”, “Inc.)” for “Inc., La Jolla, Calif.)”, “versus” for “vs.”, “slope.” for “slope with the IC50 calculated.”

ANBL-6 [1] = assay: MTS assay (cell viability / metabolic activity); conditions: ANBL-6, 3 days or 7 days
Method: as §1
as §1, with “Metabolic activity” for “Percent cell viability”, “(Promega)” for “(Promega, Madison, Wis.)”, “Instruments Inc.)” for “Instruments, Inc., Winooski, Vt.)”, “Inc.)” for “Inc., La Jolla, Calif.)”, “versus” for “vs.”, “slope.” for “slope with the IC50 calculated.”

MM1-144 [2] = assay: MTS assay (cell viability / metabolic activity); conditions: MM144 (MM1-144), 3 days
Method: as §1
as §1, with “Metabolic activity” for “Percent cell viability”, “(Promega)” for “(Promega, Madison, Wis.)”, “Instruments Inc.)” for “Instruments, Inc., Winooski, Vt.)”, “Inc.)” for “Inc., La Jolla, Calif.)”, “versus” for “vs.”, “slope.” for “slope with the IC50 calculated.”

OCI-My5 [3] = assay: MTS assay (cell viability / metabolic activity); conditions: OCI-My5, 3 days
Method: as §1
as §1, with “Metabolic activity” for “Percent cell viability”, “(Promega)” for “(Promega, Madison, Wis.)”, “Instruments Inc.)” for “Instruments, Inc., Winooski, Vt.)”, “Inc.)” for “Inc., La Jolla, Calif.)”, “versus” for “vs.”, “slope.” for “slope with the IC50 calculated.”

U266 [4] = assay: MTS assay (cell viability / metabolic activity); conditions: U266, 3 days
Method: as §1
as §1, with “Metabolic activity” for “Percent cell viability”, “(Promega)” for “(Promega, Madison, Wis.)”, “Instruments Inc.)” for “Instruments, Inc., Winooski, Vt.)”, “Inc.)” for “Inc., La Jolla, Calif.)”, “versus” for “vs.”, “slope.” for “slope with the IC50 calculated.”

OPM-2 = assay: MTS assay (cell viability / metabolic activity)
Method: as §1
To determine if the HMCLs were sensitive to treatment with IFNα fusion protein, HMCLs were incubated with varying concentrations of anti-CD138-IFNα, and cell viability was assessed. Anti-CD138-IFNα was used to target IFNα to the MM cell lines while anti-CD20-IFNα was used as an untargeted control. […] The MM cell lines differed in their response to treatment with the fusion proteins.

MM1-144 [5] = assay: Apoptosis assay (Annexin V / PI flow cytometry)
Method: (§2) Cells were analyzed by flow cytometry using FlowJo software.
(§3) Cells were stained with Alexa Fluor 488-labeled Annexin V and propidium iodide (PI) using the Vybrant Apoptosis Kit #2 (Molecular Probes) as per manufacturer's instructions and analyzed by flow cytometry.

NCI-H929 [6] = assay: Apoptosis assay (Annexin V / PI flow cytometry)
Method: as §2, §3

U266 [7] = assay: Apoptosis assay (Annexin V / PI flow cytometry)
Method: as §2, §3

ANBL-6 [8] = assay: Senescence induced β-gal activity at pH 6 (C12FDG, flow cytometry); conditions: ANBL-6, 1 nM, 3 days (data not shown)
Method: (§4) Senescence induced β-galactosidase (β-gal) activity was detected as described previously (Debacq-Chainiaux et al. (2009) Nature Protocols, 4: 1798-1806). […] To induce lysosomal alkalinization, cells were incubated in 100 nM bafilomycin A1 (Sigma) for 1 h. Then cells were incubated for 30 min with the β-gal substrate dodecanoylaminofluorescein di-β-D-galactopyranoside (C12FDG; Invitrogen), which becomes fluorescent after cleavage by β-gal. After washing twice with cold PBS, cells were resuspended in cold PBS containing 1 mM phenylethyl thiogalactoside (PETG), a β-gal inhibitor, and analyzed by flow cytometry for C12-fluorescein.
(§5) Intracellular β-galactosidase (β-gal) activity was measured as an indicator for replicative senescence. […] After treatment, cells were incubated with 100 nM bafilomycin A1 (Sigma) for 1 hour to induce lysosomal alkalinization. Then cells were incubated for 30 minutes with the 33 μM of β-gal substrate dodecanoylaminofluorescein di-β-D-galactopyranoside (C12FDG; Invitrogen), which becomes fluorescent after cleavage to C12-fluorescein. After washing twice with cold PBS, cells were resuspended in cold PBS containing 1 mM phenylethyl thiogalactoside (PETG), a β-gal inhibitor, and analyzed by flow cytometry for C12-fluorescein.

MM1-144 [9] = assay: as above; conditions: MM1-144, 1 nM, 3 days
Method: as §4, §5

NCI-H929 [10] = assay: as above; conditions: 1 nM, 3 days, listed as anti-CD138-IFNα2
Method: as §4, §5

OCI-My5 [11] = assay: as above
Method: as §4, §5

U266 [12] = assay: as above; conditions: U266, 1 nM, 3 days
Method: as §4, §5

OCI-My 5 cells = assay: Cell proliferation assay (3[H]-thymidine incorporation); conditions: OCI-My 5, 0.3 pM-25 nM, 3 days
Method: The proliferative status of the cells was determined by measuring ^3[H]-thymidine incorporation.

MM1-144 [13] = assay: Ki-67 stain (flow cytometry); conditions: MM1-144, 500 pM, 3 days
Method: (§6) Senescence induced β-galactosidase (β-gal) activity was detected as described previously (Debacq-Chainiaux et al. (2009) Nat. Protoc., 4: 1798-1806) and in Supplemental methods. To detect Ki-67 protein, cells were stained and analyzed by flow cytometry as described in Supplemental methods.
(§7) After treatment, cells were fixed with methanol on ice and then incubated with anti-Ki-67 rabbit IgG (Abcam). Cells were then stained with anti-rabbit IgG-FITC (Sigma) and analyzed by flow cytometry.

NCI-H929 [14] = assay: Ki-67 stain (flow cytometry); conditions: NCI-H929, 500 pM, 3 days
Method: as §6, §7

[15] = test system: primary myeloma cells from patients; assay: Treatment of primary myeloma cells from patients (trypan blue / MTT)
Method: Trypan blue and MTT assays were used to determine the number of viable cells. The percentage of viable recovered cells was calculated based upon the number of viable cells recovered from DMSO-treated control cells, which was arbitrarily designated as 100%.
Percent viable cell recovery was determined by trypan blue staining, with untreated control cells designated as 100%.

anti-CD138-IFNα: Fusion protein: murine B-B4 anti-CD138 variable regions, human IgG1κ constant regions, human IFNα2 fused to the antibody C-terminus via SGGGGS linker
cell viability (MTS assay), result in words (Daudi cells): just as effective as recombinant IFNα
cell viability / growth inhibition (MTS assay), result in words (8226/S): intermediate effect; also recorded: more effective at decreasing cell viability than IFNα alone
cell viability / growth inhibition (MTS assay), result in words (8226/S; listed as Anti-CD138-IFNα2): some effect was observed only at high concentrations
cell viability / growth inhibition (MTS assay), result in words (ANBL-6 [1]): more effective than untargeted anti-CD20-IFNα; also recorded: more effective at decreasing cell viability than IFNα alone
cell viability / growth inhibition (MTS assay), result in words (ANBL-6 [1]; listed as Anti-CD138-IFNα): more effective than anti-CD138-mutIFNα
cell viability / growth inhibition (MTS assay), result in words (ANBL-6 [1]; listed as Anti-CD138-IFNα2): more effective than recombinant IFNα2
cell viability / growth inhibition (MTS assay), result in words (MM1-144 [2]): more effective than untargeted anti-CD20-IFNα; also recorded: more effective at decreasing cell viability than IFNα alone
cell viability / growth inhibition (MTS assay), result in words (MM1-144 [2]; listed as Anti-CD138-IFNα2): more effective than recombinant IFNα2
cell viability / growth inhibition (MTS assay), result in words (OCI-My5 [3]): more effective than untargeted anti-CD20-IFNα; also recorded: more effective at decreasing cell viability than IFNα alone
cell viability / growth inhibition (MTS assay), result in words (OCI-My5 [3]; listed as Anti-CD138-IFNα2): more effective than recombinant IFNα2
cell viability / growth inhibition (MTS assay), result in words (U266 [4]): more effective than untargeted anti-CD20-IFNα; also recorded: more effective at decreasing cell viability than IFNα alone
cell viability (MTS assay), result in words (OPM-2; OPM-2, 3 days): little or no effect
cell viability (MTS assay), result in words (OPM-2; OPM-2, treatment increased to 4 days (data not shown)): decrease in viability
induction of apoptosis at low concentration, result in words (MM1-144 [5]; MM1-144, 1 pM, 3 days): did not cause apoptosis
Mode of Action of anti-CD138-IFNα fusion (MM1-144 [5]; MM144): Apoptosis
induction of apoptosis, result in words (MM1-144 [5]; MM144 (MM1-144), 500 pM, 3 days): caused apoptosis
Mode of Action of anti-CD138-IFNα fusion (NCI-H929 [6]; H929): Apoptosis
induction of apoptosis, result in words (NCI-H929 [6]; H929 (NCI-H929), 500 pM, 3 days, listed as anti-CD138-IFNα2): caused apoptosis
induction of apoptosis at low concentration, result in words (NCI-H929 [6]; NCI-H929, 1 pM, 3 days): did not cause apoptosis
Mode of Action of anti-CD138-IFNα fusion (U266 [7]; U266): Apoptosis
induction of apoptosis at low concentration, result in words (U266 [7]; U266, 1 pM, 3 days): able to induce apoptosis
induction of apoptosis, result in words (U266 [7]; U266, 500 pM, 3 days, listed as anti-CD138-IFNα2): caused apoptosis
β-gal activity at pH 6 (senescence), result in words (ANBL-6 [8]): no increases
β-gal activity at pH 6 (senescence), result in words (MM1-144 [9]): increases in β-gal activity
β-gal activity at pH 6 (senescence), result in words (NCI-H929 [10]): increases in β-gal activity; also recorded: greater effect than with IFNα2 alone
β-gal activity at pH 6 (senescence), result in words (OCI-My5 [11]; OCI-My5, 1 nM, 3 days (also 4, 6, 7 days)): little or no increase in β-gal activity
Mode of Action of anti-CD138-IFNα fusion (OCI-My5 [11]; OCI-My 5, footnote †): senescence†
β-gal activity at pH 6 (senescence), result in words (U266 [12]): no increase under any conditions
proliferation (3[H]-thymidine incorporation), result in words (OCI-My 5 cells): greater effect than IFNα alone
Ki-67 negative (non-dividing) cells, result in words (MM1-144 [13]): more Ki-6T cells as compared to untreated control
Ki-67 negative (non-dividing) cells, result in words (NCI-H929 [14]): more Ki-6T cells as compared to untreated control
viability of primary myeloma cells, result in words ([15]; 25 nM, 72 h): little effect
viability of primary myeloma cells, result in words ([15]; 100 nM, 72 hours): significantly reduce cell viability
